Measurements: patent US20100310420A1, “SENSORS” (THE TRUSTEES OF PRINCETON UNIVERSITY, priority 2003, published 2010)

Tests used:
[1] = tested on: eJSmcp1[pJStari1, pJSxcmcp1]; experiment: Swarming of eJSmcp1[pJStari1, pJSxcmcp1] grown with methyl-D-aspartate; format: cell-based, E. coli; details: grown in the presence vs absence of methyl-D-aspartate; Tar-expressing transformed strain
Experimental: (§1) eJSmcp1[pJStari1, pJSxcmcp1] is grown in the absence and in the presence of methyl-D-aspartate.

[2] = tested on: wild type aspartate responsive control cells; experiment: Swarming of wild type control cells grown with methyl-D-aspartate; format: cell-based, E. coli; details: grown in the presence vs absence of methyl-D-aspartate
Experimental: as §1

Substance: methyl-D-aspartate
- Swarming [1]: Swarming is seen in the presence of the aspartate but not in its absence
- Swarming [2]: same results are seen
